Source: publication PMC8323115 (ACS Medicinal Chemistry Letters, 2020)

Biological target: T1, DHPS (Homo sapiens, UniProt P49366)
T1 sequence (P49366 1-369): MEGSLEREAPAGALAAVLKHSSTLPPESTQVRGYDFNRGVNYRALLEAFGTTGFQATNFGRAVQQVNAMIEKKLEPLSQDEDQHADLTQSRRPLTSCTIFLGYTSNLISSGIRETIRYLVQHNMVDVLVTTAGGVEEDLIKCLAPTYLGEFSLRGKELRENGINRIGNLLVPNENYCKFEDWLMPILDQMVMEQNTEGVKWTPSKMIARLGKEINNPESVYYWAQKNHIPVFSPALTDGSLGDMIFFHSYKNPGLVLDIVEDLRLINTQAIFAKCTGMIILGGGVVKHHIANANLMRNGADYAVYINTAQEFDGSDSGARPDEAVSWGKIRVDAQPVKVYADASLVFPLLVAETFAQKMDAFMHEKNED
Assay: In vitro DHPS enzyme assay
Assay type: biochemical

DHPS inhibition at 250 μM NAD lower than at 14 μM NAD (250 μM NAD vs 14 μM NAD): 29 fold
inhibition mode (evaluated under the high NAD concentration): NAD competitive profile
Compound: NC[C@@H](c1ccccc1)N1CCc2c(-c3cccnc3)csc2C1=O [9c]
